Source: ChEMBL document CHEMBL1201862, “PubChem BioAssay data set” (2004)
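Test compounds were applied to cells in 96-well plates for 48 hours at 5 doses. GI50 = concentration required for 50% inhibition of growth.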 Calls of active or inactive are those of the source. Rule as the data show it: active = GI50 up to about 1.1 µM and inactive = higher.

What was measured:
Assay in all cases: DTP human tumour cell line panel, 48 h
NCI-H226 = test system: NCI-H226
SK-MEL-5 = test system: SK-MEL-5
UACC-257 = test system: UACC-257
SK-MEL-2 = test system: SK-MEL-2
IGROV-1 = test system: IGROV-1
RPMI-8226 = test system: RPMI-8226
SK-OV-3 = test system: SK-OV-3
CAKI-1 = test system: CAKI-1
EKVX = test system: EKVX
K562 = test system: K562
NCI-H23 = test system: NCI-H23
A498 = test system: A498
ACHN = test system: ACHN
SR = test system: SR
PC-3 = test system: PC-3
MDA-MB-435 = test system: MDA-MB-435
MCF7 = test system: MCF7
NCI/ADR-RES = test system: NCI/ADR-RES
T47D = test system: T47D

Measured: GI50

CC1=C(/C=C/C(C)=C/C=C/C(C)=C/C=C/C=C(C)/C=C/C=C(C)/C=C/C2=C(C)C(=O)C(O)CC2(C)C)C(C)(C)CC(O)C1=O (configuration not stated)
inactive: NCI-H226 > 100 µM | SK-MEL-5 > 100 µM | UACC-257 > 100 µM | SK-MEL-2 > 100 µM | IGROV-1 > 100 µM | RPMI-8226 > 100 µM | SK-OV-3 > 100 µM | CAKI-1 > 100 µM | EKVX > 100 µM | K562 > 100 µM | NCI-H23 > 100 µM | A498 > 100 µM | ACHN > 100 µM | SR > 100 µM

c1ccc2c3nc(C4CCCC4)nc-3c(NC3CCCC3)[nH]c2c1
inactive: NCI-H226 24.7 µM | SK-MEL-5 6.98 µM | UACC-257 5.94 µM | SK-MEL-2 14 µM | IGROV-1 20.3 µM | RPMI-8226 21.2 µM | SK-OV-3 32.1 µM | EKVX 57.4 µM | K562 7.83 µM | NCI-H23 15.7 µM | A498 21.3 µM | ACHN 25.7 µM | SR 10.3 µM

C=CCn1c(-c2cc(C(C)(C)C)c(O)c(C(C)(C)C)c2)cs/c1=N\C(P(=O)(O)O)P(=O)(O)O
inactive: NCI-H226 > 100 µM | SK-MEL-2 > 100 µM | IGROV-1 > 100 µM | PC-3 > 100 µM | RPMI-8226 > 100 µM | SK-OV-3 > 100 µM | CAKI-1 > 100 µM | EKVX > 100 µM | MDA-MB-435 > 100 µM | K562 > 100 µM | NCI-H23 > 100 µM | A498 > 100 µM | MCF7 > 100 µM | ACHN > 100 µM | NCI/ADR-RES > 100 µM | SR > 100 µM | T47D > 100 µM

O=c1c2cc3ccccc3n2c(=O)c2cc3ccccc3n12
inactive: NCI-H226 > 100 µM | SK-MEL-5 > 100 µM | UACC-257 > 100 µM | SK-MEL-2 > 100 µM | RPMI-8226 > 100 µM | CAKI-1 > 100 µM | EKVX > 100 µM | K562 > 100 µM | NCI-H23 > 100 µM | A498 > 100 µM | ACHN > 100 µM | SR > 100 µM

Cc1cc(N(CCC#N)S(C)(=O)=O)ccc1C=O
inactive: NCI-H226 > 100 µM | SK-MEL-5 > 100 µM | UACC-257 > 100 µM | SK-MEL-2 > 100 µM | IGROV-1 > 100 µM | RPMI-8226 > 100 µM | SK-OV-3 > 100 µM | CAKI-1 > 100 µM | K562 > 100 µM | NCI-H23 > 100 µM | A498 > 100 µM | ACHN > 100 µM | SR > 100 µM

CCOC(=O)/N=c1\ss/c(=N\C(=S)N(C)C)n1-c1ccccc1
inactive: NCI-H226 > 10 µM | SK-MEL-5 2.62 µM | UACC-257 > 10 µM | SK-MEL-2 67.8 µM | IGROV-1 4.11 µM | RPMI-8226 7.48 µM | SK-OV-3 > 10 µM | CAKI-1 48 µM | EKVX > 100 µM | K562 19 µM | NCI-H23 67.5 µM | A498 4.42 µM | ACHN 52.1 µM | SR 3.72 µM

CCC(=O)Nc1nc2c(ncn2C2OC(COC(=O)CC)C(OC(=O)CC)C2OC(=O)CC)c(=O)[nH]1 (configuration not stated)
inactive: NCI-H226 > 100 µM | SK-MEL-5 > 100 µM | UACC-257 > 100 µM | SK-MEL-2 > 100 µM | IGROV-1 > 100 µM | RPMI-8226 > 100 µM | SK-OV-3 > 100 µM | CAKI-1 > 100 µM | EKVX > 100 µM | K562 > 100 µM | A498 > 100 µM | ACHN > 100 µM | SR > 100 µM

COc1ccc(/C=C2\SC(c3ccc(OC)cc3)N(NC(=O)Cc3ccccc3)C2=O)cc1 (configuration not stated)
inactive: NCI-H226 > 100 µM | SK-MEL-5 > 100 µM | UACC-257 > 100 µM | SK-MEL-2 > 100 µM | IGROV-1 > 100 µM | RPMI-8226 76.4 µM | SK-OV-3 > 100 µM | CAKI-1 > 100 µM | K562 88.1 µM | NCI-H23 > 100 µM | A498 > 100 µM | ACHN > 100 µM | SR > 100 µM

C[C@@]12CCC(=O)c3coc(c31)C(=O)c1cc3c(cc12)C(=O)C=CC3=O [HELENAQUINONE]
inactive: NCI-H226 29 µM | SK-MEL-5 15.1 µM | UACC-257 11.6 µM | SK-MEL-2 23.9 µM | IGROV-1 25.9 µM | RPMI-8226 64.6 µM | SK-OV-3 > 100 µM | CAKI-1 21.1 µM | EKVX 23.6 µM | K562 > 22.2 µM | NCI-H23 12.5 µM | A498 > 100 µM | ACHN 16.5 µM | SR 30.1 µM

COc1ccc(CC(C)N)cc1 (configuration not stated) [PARA-METHOXYAMPHETAMINE]
inactive: NCI-H226 > 100 µM | SK-MEL-5 > 100 µM | UACC-257 > 100 µM | SK-MEL-2 > 100 µM | IGROV-1 > 100 µM | RPMI-8226 > 100 µM | SK-OV-3 > 100 µM | CAKI-1 > 100 µM | EKVX > 100 µM | K562 > 100 µM | NCI-H23 > 100 µM | A498 > 100 µM | ACHN > 100 µM | SR > 100 µM
